This is an account of results in ChEMBL document CHEMBL3751684, “2,3-Dihydrobenzofuran privileged structures as new bioinspired lead compounds for the design of mPGES-1 inhibitors” (Bioorg Med Chem, 2016).

The source made the active and inactive calls. The rule behind the calls is not given here.

For one test, the target named is T1, Prostaglandin E synthase (Homo sapiens, UniProt O14684).
T1 sequence (O14684 whole entry): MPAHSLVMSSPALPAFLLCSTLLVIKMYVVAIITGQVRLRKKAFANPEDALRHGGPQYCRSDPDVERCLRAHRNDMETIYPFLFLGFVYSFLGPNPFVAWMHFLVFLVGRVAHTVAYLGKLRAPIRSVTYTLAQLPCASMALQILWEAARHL
Briefly: Inhibition of PGES-1 in IL-1beta stimulated human A549 cell microsomes using PGH2 as substrate assessed as suppression of PGE2 formation preincubated for 15 mins followed by substrate addition by reversed phase-HPLC analysis.

Test [1] deals with T2, Prostaglandin E synthase (Homo sapiens) (UniProt O14684).
T2 sequence (whole entry): T1 sequence (O14684 whole entry)
Briefly: Inhibition of PGES-1 in IL-1beta stimulated human A549 cell microsomes using PGH2 as substrate assessed as suppression of PGE2 formation at 10 uM preincubated for 15 mins followed by substrate addition by reversed phase-HPLC analysis.

Usually IC50 stands for the concentration that inhibits the measured activity by half. Turning to `O=C(/C=C/c1cc(O)c2c(c1)[C@@H](C(=O)OCCc1ccccc1)[C@H](c1ccc(O)c(O)c1)O2)OCCc1ccccc1`, the IC50 on Prostaglandin E synthase is 2100 nM. Same read-out and setting: the value for `O=C(/C=C/c1cc(O)c2c(c1)[C@H](C(=O)OCCc1ccccc1)[C@@H](c1ccc(O)c(O)c1)O2)OCCc1ccccc1` was 2800 nM.

As to `CCOC(=O)/C=C/c1cc(O)c2c(c1)[C@@H](C(=O)OCC)[C@H](c1ccc(O)c(O)c1)O2` (racemic), the concentration for half-maximal inhibition (IC50) on Prostaglandin E synthase is 3600 nM. For the same compound, the inhibition result in test [1] was “Active”. Regarding `O=C(/C=C/c1cc(O)c2c(c1)[C@@H](C(=O)OCCc1ccccc1)[C@H](c1ccc(O)c(O)c1)O2)OCCc1ccccc1` (racemic) [listing 1 of 2 here], the 50% inhibitory concentration (IC50) on Prostaglandin E synthase was 2000 nM. Turning to `CCCCOC(=O)/C=C/c1cc(O)c2c(c1)[C@@H](C(=O)OCCCC)[C@H](c1ccc(O)c(O)c1)O2` (racemic), the IC50 at Prostaglandin E synthase came to 2100 nM. Further, the inhibition result in test [1] was “Active”. The like results for `COC(=O)/C=C/c1cc(O)c2c(c1)[C@@H](C(=O)OC)[C@H](c1ccc(O)c(O)c1)O2` (racemic) were, in that order, 8500 nM and “Active”. In the case of `C=Cc1ccc(/C=C/c2ccc3c(c2)[C@@H](c2ccc(C=C)cc2)[C@H](c2ccc(O)cc2)O3)cc1` (racemic), the inhibition result in test [1] is “inactive”. The same measure, in the same setting: the value for `COc1cc(/C=C/c2ccc3c(c2)[C@@H](c2cc(OC)cc(OC)c2)[C@H](c2ccc(O)cc2)O3)cc(OC)c1` (racemic) was “Active”; that for `COc1cc([C@@H]2Oc3c(OC)cc(/C=C/c4cc(OC)c(OC)c(OC)c4)cc3[C@H]2c2cc(OC)c(OC)c(OC)c2)ccc1O` (racemic) was “Active”. The same measure, in the same setting: the same measure for `COc1ccc(/C=C/c2ccc3c(c2)[C@@H](c2ccc(OC)cc2)[C@H](c2ccc(O)cc2)O3)cc1` (racemic): “Active”. In the case of `O=C(/C=C/c1cc(O)c2c(c1)[C@@H](C(=O)OCCc1ccccc1)[C@H](c1ccc(O)c(O)c1)O2)OCCc1ccccc1` (racemic) [listing 2 of 2 here], in test [1], the inhibition result was “Active”.
